According to the NIST ThermoML archive (doi:10.1021/acs.jced.8b00199):
Numbers after ± are expanded uncertainties.

Test: molar heat capacity at constant pressure
Details: Liquid, Flow calorimetry

In the case of `CCCCCCCCCC(=O)OCC` [ethyl decanoate], the “molar heat capacity at constant pressure” value (294 K, 100 kPa) is reported as 400.39 ± 4 J/K/mol, the “molar heat capacity at constant pressure” value (294 K, 3080 kPa) is reported as 399.98 ± 4 J/K/mol and the “molar heat capacity at constant pressure” value (294 K, 6090 kPa) is reported as 399.53 ± 4 J/K/mol. For the same compound, the “molar heat capacity at constant pressure” value (294 K, 8970 kPa) was 399.07 ± 4 J/K/mol, the “molar heat capacity at constant pressure” value (294 K, 12120 kPa) was 398.72 ± 4 J/K/mol and the “molar heat capacity at constant pressure” value (294.1 K, 14870 kPa) was 398.28 ± 4 J/K/mol. For the same compound, the “molar heat capacity at constant pressure” value (294.1 K, 17910 kPa) was 397.82 ± 4 J/K/mol, the “molar heat capacity at constant pressure” value (294.1 K, 21090 kPa) was 397.38 ± 4 J/K/mol and the “molar heat capacity at constant pressure” value (294.1 K, 24040 kPa) was 396.93 ± 4 J/K/mol. The “molar heat capacity at constant pressure” value (304 K, 130 kPa) was 406.09 ± 4.1 J/K/mol, the “molar heat capacity at constant pressure” value (304 K, 3030 kPa) was 405.62 ± 4.1 J/K/mol and the “molar heat capacity at constant pressure” value (304 K, 6160 kPa) was 405.12 ± 4.1 J/K/mol. The “molar heat capacity at constant pressure” value (304 K, 9030 kPa) was 404.66 ± 4.1 J/K/mol, the “molar heat capacity at constant pressure” value (304 K, 11950 kPa) was 404.19 ± 4.1 J/K/mol and the “molar heat capacity at constant pressure” value (304 K, 15090 kPa) was 403.69 ± 4.1 J/K/mol. The “molar heat capacity at constant pressure” value (304 K, 17870 kPa) was 403.23 ± 4.1 J/K/mol, the “molar heat capacity at constant pressure” value (304.1 K, 21100 kPa) was 402.75 ± 4.1 J/K/mol and the “molar heat capacity at constant pressure” value (304.1 K, 24050 kPa) was 402.24 ± 4.1 J/K/mol. For the same compound, the “molar heat capacity at constant pressure” value (313.9 K, 110 kPa) was 411.45 ± 4.2 J/K/mol, the “molar heat capacity at constant pressure” value (313.9 K, 2920 kPa) was 410.92 ± 4.2 J/K/mol and the “molar heat capacity at constant pressure” value (313.9 K, 5990 kPa) was 410.45 ± 4.2 J/K/mol. For the same compound, the “molar heat capacity at constant pressure” value (313.9 K, 9080 kPa) was 409.95 ± 4.1 J/K/mol, the “molar heat capacity at constant pressure” value (314 K, 11910 kPa) was 409.43 ± 4.1 J/K/mol and the “molar heat capacity at constant pressure” value (314 K, 15030 kPa) was 408.93 ± 4.1 J/K/mol. For the same compound, the “molar heat capacity at constant pressure” value (314 K, 18090 kPa) was 408.41 ± 4.1 J/K/mol, the “molar heat capacity at constant pressure” value (314 K, 21080 kPa) was 407.89 ± 4.1 J/K/mol and the “molar heat capacity at constant pressure” value (314 K, 24110 kPa) was 407.34 ± 4.1 J/K/mol. The “molar heat capacity at constant pressure” value (323.8 K, 150 kPa) was 416.54 ± 4.2 J/K/mol, the “molar heat capacity at constant pressure” value (323.9 K, 3040 kPa) was 416.03 ± 4.2 J/K/mol and the “molar heat capacity at constant pressure” value (323.9 K, 5930 kPa) was 415.53 ± 4.2 J/K/mol. For the same compound, the “molar heat capacity at constant pressure” value (323.9 K, 9070 kPa) was 415.03 ± 4.2 J/K/mol, the “molar heat capacity at constant pressure” value (323.9 K, 11980 kPa) was 414.54 ± 4.2 J/K/mol and the “molar heat capacity at constant pressure” value (323.9 K, 15050 kPa) was 414.03 ± 4.2 J/K/mol. The “molar heat capacity at constant pressure” value (324 K, 18050 kPa) was 413.54 ± 4.2 J/K/mol, the “molar heat capacity at constant pressure” value (324 K, 21210 kPa) was 413.06 ± 4.2 J/K/mol and the “molar heat capacity at constant pressure” value (324 K, 24030 kPa) was 412.57 ± 4.2 J/K/mol. The “molar heat capacity at constant pressure” value (333.8 K, 120 kPa) was 423.19 ± 4.3 J/K/mol, the “molar heat capacity at constant pressure” value (333.8 K, 2960 kPa) was 422.7 ± 4.3 J/K/mol and the “molar heat capacity at constant pressure” value (333.8 K, 5990 kPa) was 422.28 ± 4.3 J/K/mol. The “molar heat capacity at constant pressure” value (333.8 K, 9040 kPa) was 421.77 ± 4.3 J/K/mol, the “molar heat capacity at constant pressure” value (333.9 K, 12030 kPa) was 421.17 ± 4.2 J/K/mol and the “molar heat capacity at constant pressure” value (333.9 K, 14940 kPa) was 420.66 ± 4.2 J/K/mol. The “molar heat capacity at constant pressure” value (333.9 K, 18050 kPa) was 420.15 ± 4.2 J/K/mol, the “molar heat capacity at constant pressure” value (333.9 K, 21100 kPa) was 419.65 ± 4.2 J/K/mol and the “molar heat capacity at constant pressure” value (334 K, 24050 kPa) was 419.11 ± 4.2 J/K/mol. For the same compound, the “molar heat capacity at constant pressure” value (343.7 K, 150 kPa) was 429.52 ± 4.3 J/K/mol, the “molar heat capacity at constant pressure” value (343.7 K, 3000 kPa) was 429.02 ± 4.3 J/K/mol and the “molar heat capacity at constant pressure” value (343.7 K, 6190 kPa) was 428.5 ± 4.3 J/K/mol. The “molar heat capacity at constant pressure” value (343.8 K, 8990 kPa) was 427.96 ± 4.3 J/K/mol, the “molar heat capacity at constant pressure” value (343.8 K, 12100 kPa) was 427.46 ± 4.3 J/K/mol and the “molar heat capacity at constant pressure” value (343.8 K, 14910 kPa) was 426.93 ± 4.3 J/K/mol. For the same compound, the “molar heat capacity at constant pressure” value (343.8 K, 17990 kPa) was 426.4 ± 4.3 J/K/mol, the “molar heat capacity at constant pressure” value (343.8 K, 21010 kPa) was 426.07 ± 4.3 J/K/mol and the “molar heat capacity at constant pressure” value (343.9 K, 23970 kPa) was 425.54 ± 4.3 J/K/mol. For the same compound, the “molar heat capacity at constant pressure” value (353.7 K, 110 kPa) was 435.96 ± 4.4 J/K/mol, the “molar heat capacity at constant pressure” value (353.7 K, 2980 kPa) was 435.41 ± 4.4 J/K/mol and the “molar heat capacity at constant pressure” value (353.7 K, 6020 kPa) was 434.91 ± 4.4 J/K/mol. For the same compound, the “molar heat capacity at constant pressure” value (353.7 K, 8990 kPa) was 434.4 ± 4.4 J/K/mol, the “molar heat capacity at constant pressure” value (353.8 K, 11920 kPa) was 433.87 ± 4.4 J/K/mol and the “molar heat capacity at constant pressure” value (353.8 K, 14940 kPa) was 433.36 ± 4.4 J/K/mol. The “molar heat capacity at constant pressure” value (353.8 K, 17960 kPa) was 432.85 ± 4.4 J/K/mol, the “molar heat capacity at constant pressure” value (353.8 K, 21070 kPa) was 432.33 ± 4.4 J/K/mol and the “molar heat capacity at constant pressure” value (353.9 K, 23980 kPa) was 431.81 ± 4.4 J/K/mol.
